In ChEMBL document CHEMBL1955732, “Synthesis and biological evaluation of 21-arylidenepregnenolone derivatives as neuroprotective agents” (Bioorg Med Chem Lett, 2012):
The source made the active and inactive calls. The calls are words filed in the database; no cut-off is given here.

system: PC-12; assay: Neuroprotective activity against Abeta25-35-induced […] cells assessed as cell viability at 10 uM preincubated for 2 hrs prior Abeta25-35 challenge measured after 24 hrs by MTT assay; assay type: functional; conditions: Rattus norvegicus

Row | Compound | Activity
1 | C[C@]12CC[C@H]3[C@@H](CC=C4C[C@@H](O)CC[C@@]43C)[C@@H]1CC[C@@H]2C(=O)/C=C/c1ccccc1Br | inactive
2 | C[C@]12CC[C@H]3[C@@H](C[C@@H]4O[C@@]45C[C@@H](O)CC[C@]35C)[C@@H]1CC[C@@H]2C(=O)/C=C/c1ccccc1C(F)(F)F | inactive
3 | C[C@]12CC[C@H]3[C@@H](CC=C4C[C@@H](O)CC[C@@]43C)[C@@H]1CC[C@@H]2C(=O)/C=C/c1ccccn1 | inactive
4 | CC(=O)[C@H]1CC[C@H]2[C@@H]3CC=C4C[C@@H](O)CC[C@]4(C)[C@H]3CC[C@]12C | inactive
5 | CCOc1ccc(/C=C/C(=O)[C@H]2CC[C@H]3[C@@H]4C[C@@H]5O[C@@]56C[C@@H](O)CC[C@]6(C)[C@H]4CC[C@]23C)cc1OC | inactive
6 | CC(=O)[C@H]1CC[C@H]2[C@@H]3C[C@@H]4O[C@@]45C[C@@H](O)CC[C@]5(C)[C@H]3CC[C@]12C | inactive
7 | COc1cccc(/C=C/C(=O)[C@H]2CC[C@H]3[C@@H]4C[C@@H]5O[C@@]56C[C@@H](O)CC[C@]6(C)[C@H]4CC[C@]23C)c1 | inactive
8 | CCOc1ccccc1/C=C/C(=O)[C@H]1CC[C@H]2[C@@H]3CC=C4C[C@@H](O)CC[C@]4(C)[C@H]3CC[C@]12C | inactive
9 | C[C@]12CC[C@H]3[C@@H](CC=C4C[C@@H](O)CC[C@@]43C)[C@@H]1CC[C@@H]2C(=O)/C=C/c1ccccc1C(F)(F)F | inactive
10 | C[C@]12CC[C@H]3[C@@H](C[C@@H]4O[C@@]45C[C@@H](O)CC[C@]35C)[C@@H]1CC[C@@H]2C(=O)/C=C/c1ccc(C#N)cc1 | inactive

same assay, conditions: Rattus norvegicus, read-out: Activity

Row | Compound | viability at 10 µM
11 | C[C@]12CC[C@H]3[C@@H](C[C@@H]4O[C@@]45C[C@@H](O)CC[C@]35C)[C@@H]1CC[C@@H]2C(=O)/C=C/c1ccc(F)cc1 | 47.6%
12 | C[C@]12CC[C@H]3[C@@H](C[C@@H]4O[C@@]45C[C@@H](O)CC[C@]35C)[C@@H]1CC[C@@H]2C(=O)/C=C/c1ccc(Cl)cc1 | 39.1%
13 | O=C(O[C@@H]1Cc2c(O)cc(O)cc2O[C@@H]1c1cc(O)c(O)c(O)c1)c1cc(O)c(O)c(O)c1 [EPIGALOCATECHIN GALLATE] | 65.4%
14 | CCOc1ccc(/C=C/C(=O)[C@H]2CC[C@H]3[C@@H]4CC=C5C[C@@H](O)CC[C@]5(C)[C@H]4CC[C@]23C)cc1OC | 26.7%
15 | C[C@]12CC[C@H]3[C@@H](CC=C4C[C@@H](O)CC[C@@]43C)[C@@H]1CC[C@@H]2C(=O)/C=C/c1ccc(F)cc1 | 32.6%

system: PC-12; assay: Cytotoxicity against […] cells at 10 uM after 24 hrs by MTT assay; assay type: cell-based; conditions: rat, pc-12, 24 h

Row | Compound | Activity
16 | C[C@]12CC[C@H]3[C@@H](C[C@@H]4O[C@@]45C[C@@H](O)CC[C@]35C)[C@@H]1CC[C@@H]2C(=O)/C=C/c1ccc(F)cc1 | Toxic
17 | C[C@]12CC[C@H]3[C@@H](C[C@@H]4O[C@@]45C[C@@H](O)CC[C@]35C)[C@@H]1CC[C@@H]2C(=O)/C=C/c1ccc(Cl)cc1 | Toxic
18 | CCOc1ccc(/C=C/C(=O)[C@H]2CC[C@H]3[C@@H]4CC=C5C[C@@H](O)CC[C@]5(C)[C@H]4CC[C@]23C)cc1OC | Toxic
19 | C[C@]12CC[C@H]3[C@@H](CC=C4C[C@@H](O)CC[C@@]43C)[C@@H]1CC[C@@H]2C(=O)/C=C/c1ccc(F)cc1 | Toxic

system: PC-12; assay: Neuroprotective activity against Abeta25-35-induced […] cells assessed as cell viability at 1 uM preincubated for 2 hrs prior Abeta25-35 challenge measured after 24 hrs by MTT assay; assay type: functional; conditions: Rattus norvegicus

Row | Compound | Activity
20 | C[C@]12CC[C@H]3[C@@H](C[C@@H]4O[C@@]45C[C@@H](O)CC[C@]35C)[C@@H]1CC[C@@H]2C(=O)/C=C/c1ccc(F)cc1 | inactive
21 | C[C@]12CC[C@H]3[C@@H](C[C@@H]4O[C@@]45C[C@@H](O)CC[C@]35C)[C@@H]1CC[C@@H]2C(=O)/C=C/c1ccc(Cl)cc1 | inactive
22 | CCOc1ccc(/C=C/C(=O)[C@H]2CC[C@H]3[C@@H]4CC=C5C[C@@H](O)CC[C@]5(C)[C@H]4CC[C@]23C)cc1OC | inactive
23 | C[C@]12CC[C@H]3[C@@H](CC=C4C[C@@H](O)CC[C@@]43C)[C@@H]1CC[C@@H]2C(=O)/C=C/c1ccc(F)cc1 | inactive
24 | C[C@]12CC[C@H]3[C@@H](CC=C4C[C@@H](O)CC[C@@]43C)[C@@H]1CC[C@@H]2C(=O)/C=C/c1ccccc1Br | inactive
25 | C[C@]12CC[C@H]3[C@@H](C[C@@H]4O[C@@]45C[C@@H](O)CC[C@]35C)[C@@H]1CC[C@@H]2C(=O)/C=C/c1ccccc1C(F)(F)F | inactive
26 | C[C@]12CC[C@H]3[C@@H](CC=C4C[C@@H](O)CC[C@@]43C)[C@@H]1CC[C@@H]2C(=O)/C=C/c1ccccn1 | inactive
27 | CC(=O)[C@H]1CC[C@H]2[C@@H]3CC=C4C[C@@H](O)CC[C@]4(C)[C@H]3CC[C@]12C | inactive
28 | CC(=O)[C@H]1CC[C@H]2[C@@H]3C[C@@H]4O[C@@]45C[C@@H](O)CC[C@]5(C)[C@H]3CC[C@]12C | inactive
29 | COc1cccc(/C=C/C(=O)[C@H]2CC[C@H]3[C@@H]4C[C@@H]5O[C@@]56C[C@@H](O)CC[C@]6(C)[C@H]4CC[C@]23C)c1 | inactive
30 | CCOc1ccccc1/C=C/C(=O)[C@H]1CC[C@H]2[C@@H]3CC=C4C[C@@H](O)CC[C@]4(C)[C@H]3CC[C@]12C | inactive
31 | C[C@]12CC[C@H]3[C@@H](CC=C4C[C@@H](O)CC[C@@]43C)[C@@H]1CC[C@@H]2C(=O)/C=C/c1ccccc1C(F)(F)F | inactive
32 | C[C@]12CC[C@H]3[C@@H](C[C@@H]4O[C@@]45C[C@@H](O)CC[C@]35C)[C@@H]1CC[C@@H]2C(=O)/C=C/c1ccc(C#N)cc1 | inactive

same assay, conditions: Rattus norvegicus, read-out: Activity

Row | Compound | viability at 1 µM
33 | CCOc1ccc(/C=C/C(=O)[C@H]2CC[C@H]3[C@@H]4C[C@@H]5O[C@@]56C[C@@H](O)CC[C@]6(C)[C@H]4CC[C@]23C)cc1OC | 61.1%
